Results on 2 compounds are retold here after US20080009435A1, “Synthetic methods for aplidine and new antitumoral derivatives, methods of making and using them” (Pharma Mar, S.A., a Spain corporation, priority 2000, published 2008).

As a reminder, the IC50 is the concentration needed to halve the response being measured.

In one experiment the test system is 5637 (Bladder). Description: IC50 Aplidine Family panel (MTT/MTS). In kind it is cell-based. The following applies: read-out: IC50 (Molar) Bladder 5637.
The subject of another experiment is MX-1 (Breast). Kind of experiment: IC50 Aplidine Family panel (MTT/MTS). Format: cell-based. As to conditions: MTT; read-out: IC50 (Molar) Breast MX-1.
The next experiment concerns HT-29 (Colon). Description: IC50 Aplidine Family panel (MTT/MTS). Format: cell-based, human. As to conditions: Homo sapiens, HT-29, read-out: IC50 (Molar) Colon HT-29.
In a further experiment the test system is Hs746t (Gastric). Kind of experiment: IC50 Aplidine Family panel (MTT/MTS). Format: cell-based. As to conditions: Homo sapiens, Hs746T, read-out: IC50 (Molar) Gastric Hs746t.
For a further experiment, the system named is SK-HEP-1 (Liver). Kind of experiment: IC50 Aplidine Family panel (MTT/MTS). In kind it is cell-based. As to conditions: Homo sapiens, SK-HEP1, read-out: IC50 (Molar) Liver SK-HEP-1.
The subject of a further experiment is A549 (NSCL). Kind of experiment: IC50 Aplidine Family panel (MTT/MTS). In kind it is cell-based, human. The following applies: Homo sapiens, A549; MTT; read-out: IC50 (Molar) NSCL A549.
The test system of a further experiment is SK-OV-3 (Ovary). Kind of experiment: IC50 Aplidine Family panel (MTT). In kind it is cell-based. As to conditions: Homo sapiens, SK-OV-3, read-out: IC50 (Molar) Ovary SK-OV-3.
The next experiment concerns PANC-1 (Pancreas). Kind of experiment: IC50 Aplidine Family panel (MTT). As to conditions: Homo sapiens, PANC-1, read-out: IC50 (Molar) Pancreas PANC-1. Format: cell-based.
Another experiment deals with FADU (Pharynx). Kind of experiment: IC50 Aplidine Family panel (MTT/MTS). In kind it is cell-based. The following applies: Homo sapiens, FaDu, read-out: IC50 (Molar) Pharynx FADU.
In a further experiment the test system is 786-O (Renal). Description: IC50 Aplidine Family panel (MTT). In kind it is cell-based. The following applies: Homo sapiens, 786-0, read-out: IC50 (Molar) Renal 786-O.
In the next experiment the test system is SW 694 (Fibrosarcoma). Description: IC50 Aplidine Family panel (MTT/MTS). In kind it is cell-based. The following applies: MTT; read-out: IC50 (Molar) Fibrosarcoma SW 694.
Experiment [1] deals with HL-60 (ALL, Promyelocytic leukemia). Kind of experiment: IC50 Aplidine Family panel (MTT/MTS). In kind it is cell-based. As to conditions: Homo sapiens, HL-60; MTT; read-out: IC50 (Molar) ALL (Promyelocytic leukemia) HL-60.
Experiment [2] concerns Molt 3 (ALL, Acute lymphobalstic). Kind of experiment: IC50 Aplidine Family panel (MTT/MTS). In kind it is cell-based. The following applies: Homo sapiens, MOLT-3, read-out: IC50 (Molar) ALL (Acute lymphobalstic) Molt 3.
In experiment [3] the test system is K562 (CML, Chronic myelogenous). Description: IC50 Aplidine Family panel (MTT/MTS). In kind it is cell-based. The following applies: Homo sapiens, K562, read-out: IC50 (Molar) CML (Chronic myelogenous) K562.
In another experiment the test system is CCRF-SB (ALL, B-cell). Kind of experiment: IC50 Aplidine Family panel (MTT). Format: cell-based. As to conditions: Homo sapiens, CCRF-SB, read-out: IC50 (Molar) ALL (B-cell) CCRF-SB.
Experiment [4] relates to ARH-77 (Leukemia, Plasma cell). Kind of experiment: IC50 Aplidine Family panel (MTT). Format: cell-based. As to conditions: Homo sapiens, read-out: IC50 (Molar) Leukemia (Plasma cell) ARH-77.
For a further experiment, the system named is H9 (Lymphoma, T cell). Kind of experiment: IC50 Aplidine Family panel (MTT/MTS). In kind it is cell-based. The following applies: T-cell; MTT; read-out: IC50 (Molar) Lymphoma (T cell) H9.
The subject of experiment [5] is Hut 78 (Lymphoma, Cutaneous T cell). Kind of experiment: IC50 Aplidine Family panel (MTT). As to conditions: Homo sapiens, HuT78, read-out: IC50 (Molar) Lymphoma (Cutaneous T cell) Hut 78. Format: cell-based.
Experiment [6] concerns MC116 (Lymphoma, undifferentiated). Kind of experiment: IC50 Aplidine Family panel (MTT/MTS). In kind it is cell-based. The following applies: Homo sapiens, MC116, read-out: IC50 (Molar) Lymphoma (undifferentiated) MC116.
Experiment [7] deals with U-937 (Lymphoma, Histiocytic). Kind of experiment: IC50 Aplidine Family panel (MTT). In kind it is cell-based. As to conditions: Homo sapiens, U-937, read-out: IC50 (Molar) Lymphoma (Histiocytic) U-937.
In experiment [8] the test system is P3HR1 (Lymphoma, Burkitts ascites). Description: IC50 Aplidine Family panel (MTT). In kind it is cell-based. As to conditions: Homo sapiens, P3HR-1, read-out: IC50 (Molar) Lymphoma (Burkitts ascites) P3HR1.
The test system of the next experiment is P388 Murine lymphoma. Description: Cytotoxicity IC50 (after Berjeron et al). As to conditions: Mus musculus, P388, read-out: Cytotoxicity of [aa3]-aplidine Congeners IC50 (Molar) P388.
Experiment [9] relates to A549 human lung carcinoma. Description: Cytotoxicity IC50 (after Berjeron et al). As to conditions: Homo sapiens, A549, read-out: Cytotoxicity of [aa3]-aplidine Congeners IC50 (Molar) A549.
Excerpt: (§1) Methodology: after Berjeron et al, Biochem and Bioph Res. Comm., 1984, 121, 3, 848-854.
(§2) P388=Murine lymphoma. A549=human lung carcinoma. HT-29=human colon carcinoma. MEL-28=human melanoma.
(§3) A549=human lung carcinoma. HT-29=human colon carcinoma. MEL-28=human melanoma.
Experiment [10] concerns HT-29 human colon carcinoma. Kind of experiment: Cytotoxicity IC50 (after Berjeron et al). The following applies: Homo sapiens, HT-29, read-out: Cytotoxicity of [aa3]-aplidine Congeners IC50 (Molar) HT29.
Excerpt: as §1, §2, §3
Another experiment concerns MEL-28 human melanoma. Description: Cytotoxicity IC50 (after Berjeron et al). As to conditions: Homo sapiens, SK-MEL-28, read-out: Cytotoxicity of [aa3]-aplidine Congeners IC50 (Molar) MEL28.
The next experiment deals with LNCAP (Prostate). Description: IC50 Aplidine Family panel (MTS). In kind it is cell-based. The following applies: Homo sapiens, MTS (new), read-out: IC50 (Molar) Prostate LNCAP.
In a further experiment the test system is Mel-28 (Melanoma). Kind of experiment: IC50 Aplidine Family panel (MTS). Format: cell-based. The following applies: Homo sapiens, SK-MEL-28; MTS (new); read-out: IC50 (Molar) Melanoma Mel-28.
A further experiment deals with CHSA (Chondrosarcoma). Description: IC50 Aplidine Family panel (MTS). Format: cell-based. The following applies: MTS (new); read-out: IC50 (Molar) Chondrosarcoma CHSA.
The next experiment relates to OSA-FH (Osteosarcoma). Kind of experiment: IC50 Aplidine Family panel (MTS). In kind it is cell-based. As to conditions: MTS (new); read-out: IC50 (Molar) Osteosarcoma OSA-FH.
Experiment [11] relates to solid tumors like colon, chondrosarcoma and osteosarcoma. Kind of experiment: MTS assay, specificity against solid tumors. In kind it is cell-based. As to conditions: with respect to didemnin B (III).

The structures appear in SMILES notation. Where two headings read alike, the source gives them in different places. *1 amine or outer side, *2 acyl side, *3 side chain or, on linkers, in order; H or OH if unused. Where a SMILES comes first, the peptide text is derived from it. Bridges are numbered along the chain shown (N, C = ends). [ ]: non-standard residue; d: D form. The star is where a group is joined. X1 = CC[C@H](C)[C@@H](N[*:1])[C@@H](O)CC(=O)O[C@H](C(=O)[C@H](C)C(=O)[*:2])C(C)C; X2 = CC[C@H](C)[C@@H](N[*:1])[C@@H](O)CC(=O)[*:2]; NMeY = CN[C@@H](Cc1ccc(O)cc1)C(=O)O; dNMeL = CN[C@H](CC(C)C)C(=O)O; Hiv = CC(C)[C@H](O)C(=O)O; Pyruvoyl = CC(=O)C(=O)*

Excerpt for MEL-28 human melanoma: as §1, §2, §3
Excerpt for P388 Murine lymphoma: as §1, §2, §3

As for `CC[C@H](C)[C@H]1NC(=O)[C@@H](NC(=O)[C@@H](CC(C)C)N(C)C(=O)[C@@H]2CCCN2C(=O)C(C)=O)[C@@H](C)OC(=O)[C@H](Cc2ccc(OC)cc2)N(C)C(=O)[C@@H]2CCCN2C(=O)[C@H](CC(C)C)NC(=O)[C@@H](C)C(=O)[C@H](C(C)C)OC(=O)C[C@@H]1O` [SAPL1, Aplidine] (Pyruvoyl-P[dNMeL]T[X1]LP[NMeY](Me); ester 3-C), the IC50 in the experiment on 5637 (Bladder) (MTT) amounted to 35.9 nM; in the experiment with MX-1 (Breast), 167 nM; in the experiment on HT-29 (Colon) (MTT) it was 687 nM; with Hs746t (Gastric) (MTT) it was 25.2 nM; in the experiment on SK-HEP-1 (Liver) (MTT) it was 94.4 nM; with A549 (NSCL), 24000 nM. Also, the half-inhibitory concentration (IC50) was 72 nM with SK-OV-3 (Ovary); 170 nM in the experiment with PANC-1 (Pancreas); 72.9 nM in the experiment on FADU (Pharynx) (MTT); 83.1 nM with 786-O (Renal); 1490 nM in the experiment with SW 694 (Fibrosarcoma); 78.9 nM in experiment [1]. In addition, the IC50 in experiment [2] (MTT) was found to be 595 nM; in experiment [3] (MTT), 572 nM; with CCRF-SB (ALL, B-cell) it was 472 nM; in [4], 178 nM; with H9 (Lymphoma, T cell) it was 525 nM; in experiment [5], 44.7 nM. The IC50 amounted to 921 nM in experiment [6] (MTT); 562 nM in experiment [7]; 53.4 nM in experiment [8]; 0.18 nM with P388 Murine lymphoma; 0.18 nM in [9]; 0.45 nM in experiment [10]. The IC50 with MEL-28 human melanoma came to 0.45 nM.
Take `CC[C@H](C)[C@H]1NC(=O)[C@@H](NC(=O)[C@@H](CC(C)C)N(C)C(=O)[C@@H]2CCCN2C(=O)C(C)=O)[C@@H](C)OC(=O)[C@H](Cc2ccc(OC)cc2)N(C)C(=O)[C@@H]2CCCN2C(=O)[C@H](CC(C)C)NC(=O)[C@H](C(C)C)OC(=O)C[C@@H]1O` [SHPL1, [Hiv]^3-Aplidine] (Pyruvoyl-P[dNMeL]T[X2][Hiv]LP[NMeY](Me); ester 3-C): the IC50 in the experiment on 5637 (Bladder) (MTS (new)) came to 90.2 nM; in the experiment on HT-29 (Colon) (MTS (new)), 10.2 nM; with Hs746t (Gastric) (MTS (new)), 71.6 nM; in the experiment with SK-HEP-1 (Liver) (MTS (new)), 265 nM; with FADU (Pharynx) (MTS (new)), 37.1 nM; with LNCAP (Prostate), 14.6 nM. In addition, the IC50 in the experiment with Mel-28 (Melanoma) was 486 nM; in the experiment with CHSA (Chondrosarcoma), 3.45 nM; in the experiment on OSA-FH (Osteosarcoma) it was 5.89 nM; in experiment [2] (MTS (new)) it was 17.7 nM; in [3] (MTS (new)) it was 521 nM; in experiment [6] (MTS (new)) it was 382 nM. In addition, the IC50 (in the experiment on P388 Murine lymphoma; in experiment [9]; in experiment [10]; in the experiment on MEL-28 human melanoma) was 0.474 nM in each case. Moreover, the “specificity against solid tumors in the MTS assay” value in [11] was “more specific against solid tumors like colon, chondrosarcoma and osteosarcoma”.
